Data on three compounds can be found in publication PMC8907714, “Antimicrobial property of Pichia pastoris‐derived natto peptide against foodborne bacteria and its preservative potential to maintain pork quality during refrigerated storage” (Food Science & Nutrition, 2022).

Assay [1] relates to E. coli O157. Nature of the assay: Time‐killing curve. The class given is cell-based, Escherichia coli. The conditions noted are these: gentamicin positive control, concentration not given. As for the experimental part: Time‐killing curves were obtained as described previously to evaluate the bactericidal rates of natto peptide (Dong & Sun, [2021]). Concisely, the natto peptide at final concentrations of 1×, 2×, and 4× MICs was incubated with E. coli O157, which was cultured to midlog phase. Then, the culture samples were harvested at different time intervals for colony counting. PBS buffer and gentamicin were used as negative and positive controls. All the experiments were performed in triplicate.

Assay [2] deals with total bacteria, Staphylococcus spp., Escherichia spp., and Pseudomonas spp. Nature of the assay: Microbial growth in pork during refrigerated storage, colony count. The conditions noted are these: pork soaked 20 min, natto peptide 30, 60, 90 μg/ml, nisin 50 μg/ml, butyl paraben 100 μg/ml, 4°C, 8‐day storage. As for the experimental part:
Fresh‐pork legs were bought from a local butcher (Binzhou, China) 24 h postmortem. The connective tissue and fat of the pork were removed before cutting into even slices (5 ± 0.1 g). Afterwards, the slices were soaked in 0, 30, 60, and 90 μg/ml of natto peptide for 20 min. Then, the slices were drained and placed in sterilized polyvinyl chloride trays, sealed using a polyethylene film, and stored at 4°C in a refrigerator for 8 days. Meanwhile, 50 μg/ml of nisin and 100 μg/ml of butyl paraben were used as positive controls to analyze the aseptic effects of natto peptide, including microbial growth, TVB‐N, lipid oxidation, pH, drip loss, and sensory quality during storage.
The microbial growth of pork was determined by colony count, as described previously (Meng et al., [2021]). In brief, after the pork sample (5 g) was homogenized with 0.9% sterilized saline buffer (25 ml), 100 μl of the 10× diluent was spread on plate‐count agar, mannitol‐salt agar, violet red bile agar, and centrimide (CN) agar, and incubated at a suitable temperature for 48 h. All experiments were performed three times.

With `CNC(C)C1CCC(N)C(OC2C(N)CC(N)C(OC3OCC(C)(O)C(NC)C3O)C2O)O1` (stereo not drawn) [gentamicin], the “time until bacteria were completely killed” value in assay [1] is 1.5 h. With `CCCCOC(=O)c1ccc(O)cc1` [Butyl paraben], in assay [2], the “bacterial growth in pork compared with control” value was “effective inhibition function”.

Take Nisin: the “bacterial growth in pork compared with control” value in assay [2] is on record as “moderate inhibitory effect”.
